Molecules are shown by their SMILES. Like-named read-outs stand apart in the source and are kept apart here.

Common to all, as to assay: AlphaLISA integrin-ligand binding assay
Assay type in all cases: biochemical

For one assay, the target named is T1, mouse αvβ8 (Mus musculus, UniProt P43406+Q0VBD0).
T1 construct: mαV 1 988; m β8 1 679; made in house; host or cells: Expi293
To be noted: Fig. 4B; read-out: IC50 Mouse integrin AlphaLISA assays: mαvβ8. Here is the method:
(§1) In the AlphaLISA integrin assays, we used a HEPES based buffer (25 mM HEPES pH 7.4, 137 mM NaCl, 1 mM MgCl2, 1 mM MnCl2, 2 mM CaCl2, 2.7 mM KCl, and 0.05% Tween-20). Optimal assay conditions were determined with a titration of the reagents for signal noise ratio (S/N), linear range, etc. For the respective integrins, we used the final concentrations described in Supplemental Table S3. Briefly, the testing antibody (8 μL) was added as a 4x (of Final testing concentration) solution in the HEPES buffer described previously into a 384w AlphaPlate (Perkin Elmer #6005350). Then the integrin and ligand were added sequentially as 8x (4 μL each). Plates were sealed and incubated at room temperature for 2 h. Then 4 × acceptor bead solution (8 μL) was added, and the plates were resealed and incubated at RT for 1 h. Finally, 4 × (8 μL) donor beads solution was added in a darkened room and incubated for 45 min at room temperature. Plates were read on the Envision (Perkin Elmer) in AlphaScreen mode within 3 h of donor bead addition.
(§2) Supplemental Table S3. integrin AlphaLIS A assay reagents and conditions Human A l phal i sa Inte gri n A ssays: Fi nal Condi ti ons […]
(§3) ( batch de pe nde nt) anti body A l phaLi sa A cce ptor havb1 1. 4 nM 1. 0 nMα - Fi brone cti n human Fi brone cti n n/a A cce ptor be ads/ Pe rki n 10. 0 ug/ m 10. 0 ug/ m […]
(§4) havb3 3. 0 nM 10. 0 nMhuman V i trone cti n- GST α - GS T A cce p t o r ug/ m Stre ptavi di n Donor ug/ m tagge d n/a be ads/ Pe rki n 15. 0 l be ads/ Pe rki n El me r 15. 0 l […]
(§5) havb6 0. 1 nM 0. 5 nM 3. […]
(§6) Mouse A l phal i sa Inte gri n A ssays: Fi nal Condi ti ons […]
(§7) m aV b 1 4. 3 nM 1. 0 nMmouse f i brone cti n A bcam α - Fi brone cti n ( Rabbi t […]
(§8) 0 nM 5. […] 0nM be ads/ Pe rki n El me r […]
(§9) m aV b 6 1. 4 nM 2. 5 nMmouse LA P- 6Hi s α - 6x HI S / P e rk i n El m e r ug/ m ug/ m m aV b 8 1. 0 nM 2. 5 nMChe mpartne rn/a( A L 128) 15 l 15 l

The next assay addresses T2, mouse α5β1 (Mus musculus, UniProt P09055+P11688).
T2 construct: mα5 1 999; m β1 1 728; made in house; host or cells: Expi293
To be noted: Fig. 4B; read-out: IC50 Mouse integrin AlphaLISA assays: mα5β1. Here is the method: as §1, §2, §3, §4, §5, §6, §7, §8, §9

A further assay deals with T3, mouse αvβ3 (Mus musculus, UniProt O54890+P43406).
T3 construct: mαV 1 988; m β3 1 717; made in house; host or cells: Expi293
Conditions: Fig. 4B; read-out: IC50 Mouse integrin AlphaLISA assays: mαvβ3. Here is the method: as §1, §2, §3, §4, §5, §6, §7, §8, §9

Another assay concerns the target T4, mouse αvβ5 (Mus musculus, UniProt O70309+P43406).
T4 construct: mαV 1 988; m β5 1 719; made in house; host or cells: Expi293
To be noted: Fig. 4B; read-out: IC50 Mouse integrin AlphaLISA assays: mαvβ5. Here is the method: as §1, §2, §3, §4, §5, §6, §7, §8, §9

Another assay has as its target T5, human αvβ5 (Homo sapiens, UniProt P06756+P18084).
T5 construct: hαV 1 992; hβ5 1 719; made in house; host or cells: Expi293
The procedure:
as §1, §2, §3, §4, §5, §6, §7, §8, §9

A further assay addresses T6, human αvβ3 (Homo sapiens, UniProt P05106+P06756).
T6 construct: hαV 1 992; hβ3 1 718; made in house; host or cells: Expi293
The procedure: as §1, §2, §3, §4, §5, §6, §7, §8, §9

A further assay addresses T7, human α5β1 (Homo sapiens, UniProt P05556+P08648).
T7 construct: hα5 1 995; hβ1 1 728; made in house; host or cells: Expi293
The procedure:
as §1, §2, §3, §4, §5, §6, §7, §8, §9

T7 sequence (P08648 42-995): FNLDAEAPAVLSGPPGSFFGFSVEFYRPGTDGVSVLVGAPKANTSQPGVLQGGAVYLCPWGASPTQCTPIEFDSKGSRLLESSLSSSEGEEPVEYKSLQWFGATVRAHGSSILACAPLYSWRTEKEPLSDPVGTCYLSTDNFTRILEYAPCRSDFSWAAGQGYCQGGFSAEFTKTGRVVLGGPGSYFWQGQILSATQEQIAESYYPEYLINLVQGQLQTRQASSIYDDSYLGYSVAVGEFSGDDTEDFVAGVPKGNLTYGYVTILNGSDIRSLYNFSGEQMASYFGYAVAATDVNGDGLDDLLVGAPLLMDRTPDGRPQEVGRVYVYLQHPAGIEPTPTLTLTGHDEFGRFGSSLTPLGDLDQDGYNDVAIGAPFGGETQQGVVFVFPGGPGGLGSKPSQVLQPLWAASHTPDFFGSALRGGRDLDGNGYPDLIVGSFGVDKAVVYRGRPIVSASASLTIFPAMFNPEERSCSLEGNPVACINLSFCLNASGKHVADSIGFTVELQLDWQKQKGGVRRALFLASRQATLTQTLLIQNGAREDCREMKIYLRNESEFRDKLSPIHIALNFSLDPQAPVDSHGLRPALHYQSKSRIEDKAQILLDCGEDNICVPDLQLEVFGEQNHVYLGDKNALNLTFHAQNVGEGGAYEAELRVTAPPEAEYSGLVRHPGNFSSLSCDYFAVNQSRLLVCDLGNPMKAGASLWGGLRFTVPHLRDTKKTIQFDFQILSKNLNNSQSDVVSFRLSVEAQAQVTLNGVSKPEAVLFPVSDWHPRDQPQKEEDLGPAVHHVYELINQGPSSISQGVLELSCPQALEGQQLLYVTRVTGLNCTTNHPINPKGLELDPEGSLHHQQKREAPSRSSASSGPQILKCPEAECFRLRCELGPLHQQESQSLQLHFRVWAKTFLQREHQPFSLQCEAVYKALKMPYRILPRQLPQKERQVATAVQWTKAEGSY
T7 sequence (P05556 21-728): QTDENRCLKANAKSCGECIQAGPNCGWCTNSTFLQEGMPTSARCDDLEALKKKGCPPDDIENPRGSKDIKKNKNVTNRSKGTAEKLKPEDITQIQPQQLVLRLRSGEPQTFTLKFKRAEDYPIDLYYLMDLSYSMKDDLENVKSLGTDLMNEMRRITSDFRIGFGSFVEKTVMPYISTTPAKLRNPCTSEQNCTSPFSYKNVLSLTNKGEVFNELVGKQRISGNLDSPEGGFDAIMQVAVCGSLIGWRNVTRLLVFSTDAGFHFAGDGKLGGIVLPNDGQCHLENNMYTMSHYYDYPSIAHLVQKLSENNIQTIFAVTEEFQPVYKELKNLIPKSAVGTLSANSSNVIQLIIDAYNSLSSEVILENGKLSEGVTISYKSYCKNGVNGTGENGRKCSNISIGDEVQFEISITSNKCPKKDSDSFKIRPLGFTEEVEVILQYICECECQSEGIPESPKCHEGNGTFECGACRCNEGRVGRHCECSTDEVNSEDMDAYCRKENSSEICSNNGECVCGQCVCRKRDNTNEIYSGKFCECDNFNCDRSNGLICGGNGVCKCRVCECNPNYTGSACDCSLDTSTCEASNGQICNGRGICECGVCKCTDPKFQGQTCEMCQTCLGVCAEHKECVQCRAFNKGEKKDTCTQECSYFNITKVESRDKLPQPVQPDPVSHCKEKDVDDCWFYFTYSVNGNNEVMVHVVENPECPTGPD
T5 sequence (P06756 31-992): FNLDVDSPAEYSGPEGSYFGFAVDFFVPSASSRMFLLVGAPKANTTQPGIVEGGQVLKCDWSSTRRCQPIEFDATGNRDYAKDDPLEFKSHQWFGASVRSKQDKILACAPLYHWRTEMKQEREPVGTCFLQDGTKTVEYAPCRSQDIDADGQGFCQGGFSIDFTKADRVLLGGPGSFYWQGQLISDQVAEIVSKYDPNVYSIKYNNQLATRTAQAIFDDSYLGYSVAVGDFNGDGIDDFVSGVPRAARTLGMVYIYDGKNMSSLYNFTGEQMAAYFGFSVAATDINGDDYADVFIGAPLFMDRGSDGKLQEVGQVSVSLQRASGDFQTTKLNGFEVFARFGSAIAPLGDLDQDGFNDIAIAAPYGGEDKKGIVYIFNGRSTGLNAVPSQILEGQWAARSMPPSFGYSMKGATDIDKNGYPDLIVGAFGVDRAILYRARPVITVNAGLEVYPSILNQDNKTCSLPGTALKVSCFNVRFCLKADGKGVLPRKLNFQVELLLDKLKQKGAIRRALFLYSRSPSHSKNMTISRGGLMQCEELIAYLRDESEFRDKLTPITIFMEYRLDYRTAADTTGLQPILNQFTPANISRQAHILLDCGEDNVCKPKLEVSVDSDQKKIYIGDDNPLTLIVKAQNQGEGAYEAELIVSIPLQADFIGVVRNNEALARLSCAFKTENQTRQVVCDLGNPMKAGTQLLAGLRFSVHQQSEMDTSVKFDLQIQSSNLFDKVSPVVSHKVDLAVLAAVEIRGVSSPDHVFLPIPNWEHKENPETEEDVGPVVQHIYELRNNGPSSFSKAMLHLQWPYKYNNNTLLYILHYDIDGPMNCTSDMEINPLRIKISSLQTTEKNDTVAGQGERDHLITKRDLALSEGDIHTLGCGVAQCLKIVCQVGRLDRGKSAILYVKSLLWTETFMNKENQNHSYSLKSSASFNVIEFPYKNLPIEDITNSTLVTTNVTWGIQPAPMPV
T5 sequence (P18084 24-719): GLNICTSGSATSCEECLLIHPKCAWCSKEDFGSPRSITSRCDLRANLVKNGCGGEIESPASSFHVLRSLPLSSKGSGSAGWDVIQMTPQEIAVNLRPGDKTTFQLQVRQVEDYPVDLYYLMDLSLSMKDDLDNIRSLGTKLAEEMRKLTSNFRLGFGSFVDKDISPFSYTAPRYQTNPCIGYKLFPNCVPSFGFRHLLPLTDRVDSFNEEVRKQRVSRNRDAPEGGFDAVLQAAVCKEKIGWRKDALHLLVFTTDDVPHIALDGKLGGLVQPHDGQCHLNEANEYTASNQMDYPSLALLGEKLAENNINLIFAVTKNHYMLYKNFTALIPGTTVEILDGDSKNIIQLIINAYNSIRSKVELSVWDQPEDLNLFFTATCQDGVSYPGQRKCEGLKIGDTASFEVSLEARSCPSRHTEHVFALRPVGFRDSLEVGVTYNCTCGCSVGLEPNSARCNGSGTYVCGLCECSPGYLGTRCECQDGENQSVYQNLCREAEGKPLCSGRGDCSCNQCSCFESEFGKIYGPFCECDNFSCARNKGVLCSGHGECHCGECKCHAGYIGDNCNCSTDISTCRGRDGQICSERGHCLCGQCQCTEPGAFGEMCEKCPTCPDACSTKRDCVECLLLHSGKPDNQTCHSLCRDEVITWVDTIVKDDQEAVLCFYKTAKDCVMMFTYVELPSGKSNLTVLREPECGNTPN
T6 sequence (P06756 31-992): as the sequence (P06756 31-992) above
T6 sequence (P05106 27-718): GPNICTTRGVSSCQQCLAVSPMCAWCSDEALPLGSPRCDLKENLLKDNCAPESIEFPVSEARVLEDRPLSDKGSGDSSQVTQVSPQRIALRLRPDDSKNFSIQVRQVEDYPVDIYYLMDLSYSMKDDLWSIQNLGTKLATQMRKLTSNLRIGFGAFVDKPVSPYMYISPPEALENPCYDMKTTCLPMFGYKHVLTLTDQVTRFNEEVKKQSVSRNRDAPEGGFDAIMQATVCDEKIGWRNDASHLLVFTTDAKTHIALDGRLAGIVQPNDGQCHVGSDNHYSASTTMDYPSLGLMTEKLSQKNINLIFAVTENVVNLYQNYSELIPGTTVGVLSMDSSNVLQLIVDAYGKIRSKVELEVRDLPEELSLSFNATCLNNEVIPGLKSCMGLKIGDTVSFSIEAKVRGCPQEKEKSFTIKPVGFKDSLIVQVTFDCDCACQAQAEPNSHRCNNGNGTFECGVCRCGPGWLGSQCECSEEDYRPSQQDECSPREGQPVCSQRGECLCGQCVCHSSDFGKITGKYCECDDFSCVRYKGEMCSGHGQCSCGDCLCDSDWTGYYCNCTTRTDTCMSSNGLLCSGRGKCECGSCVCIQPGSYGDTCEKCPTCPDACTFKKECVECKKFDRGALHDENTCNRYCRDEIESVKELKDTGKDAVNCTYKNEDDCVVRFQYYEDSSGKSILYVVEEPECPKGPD

Regarding `COc1ccc(C(CC(=O)O)N2CCN(CCCc3ccc4c(n3)NCCC4)C2=O)cn1` (stereo not shown) [MK-0429], the IC50 on mouse αvβ8 turned out to be 5.3 nM; at mouse α5β1, 50.3 nM; on mouse αvβ3, 0.9 nM; at mouse αvβ5 it was 48.3 nM; at human αvβ5 (Fig. 3D, assay optimisation, read-out: IC50 human αvβ5 AlphaLISA) it was 9.9 nM; on human αvβ5 (Fig. 4B, read-out: IC50 Human integrin AlphaLISA assays: hαvβ5) it was 2.9 nM. Moreover, the IC50 on human αvβ3 (Fig. 3D, assay optimisation, read-out: IC50 human αvβ3 AlphaLISA) was found to be 0.15 nM; at human αvβ3 (Fig. 4B, read-out: IC50 Human integrin AlphaLISA assays: hαvβ3), 1.6 nM; on human α5β1 (Fig. 3D, assay optimisation, read-out: IC50 human α5β1 AlphaLISA) it was 17.3 nM; on human α5β1 (Fig. 4B, read-out: IC50 Human integrin AlphaLISA assays: hα5β1) it was 26.5 nM.

Source of the values: PMC7822819, “Discovery of a new class of integrin antibodies for fibrosis” (Scientific Reports, 2021).
